Measured values published in the Biogen ADME set (Fang et al. 2023).
Values after ≈ are worked out from the molar mass of the structure shown.

Conditions: for aqueous solubility: pH 6.8

Row | Compound | MDR1-MDCK efflux ratio | intrinsic clearance, human liver microsomes [mL/min/kg] | intrinsic clearance, rat liver microsomes [mL/min/kg] | aqueous solubility [µg/mL]
1 | CC(C)CC(=O)NCC(=O)N1CCCC1 | 1.2 | ≤ 4.74 | ≤ 10.7 | 61.5 (≈ 290 µM)
2 | Cc1cccc(Oc2cc(CN)ccn2)c1C | 0.443 | ≤ 4.74 | 527 | 30.1 (≈ 132 µM)
3 | CC(C)(C)c1nc(Cn2nnc3ccccc3c2=O)no1 | 0.68 | ≤ 4.74 | 119 | 34.7 (≈ 122 µM)
4 | CN(C)c1ccc2c(c1)OCCN2C(=O)NCc1cccnc1 | 2.66 | 23.6 | 746 | 48.1 (≈ 154 µM)
5 | Cc1ccc(C(=O)Nc2ccccc2C(C)(C)C)cn1 | 0.696 | ≤ 4.74 | 30.4 | 32 (≈ 119 µM)
6 | CC(C)N1CC[C@H](c2nnc(-c3cncn3C)o2)C1 | – | ≤ 4.74 | 79.2 | 39.3 (≈ 150 µM)
7 | CCc1cc(=O)[nH]c(SCCCCC2CCOCC2)n1 | 1.12 | 34.2 | 287 | –
8 | CN(Cc1ccn(-c2ccccc2)n1)C(=O)c1ccc(O)nc1 | 30.8 | ≤ 4.74 | ≤ 10.7 | 39.6 (≈ 128 µM)
9 | CCC(C)(C)N1CCN(C(=O)Nc2cnn(CC(C)C)c2C(F)F)CC1 | 4.08 | ≤ 4.74 | 159 | –
10 | Cc1cccc2c(=O)n(CCC(=O)Nc3cc(C4CC4)n[nH]3)cnc12 | – | – | – | 8.26 (≈ 24.5 µM)
11 | Cc1ncc(-c2ccc(C)c(S(=O)(=O)NCc3cnn(C)c3C)c2)o1 | 36.5 | 177 | 1370 | –
12 | Cc1nc(CN2C(=O)CN(C3CCCC3)C2=O)nc2ccccc12 | 1.54 | ≤ 4.74 | 823 | 43 (≈ 132 µM)
13 | c1ccc(-n2ncc3c(-n4ccnc4)ncnc32)cc1 | 0.618 | 16 | 376 | 4.97 (≈ 18.9 µM)
14 | N#CCCn1ncnc1-c1cccc(C#N)c1 | – | ≤ 4.74 | ≤ 10.7 | –
15 | Cc1ccc(S(=O)(=O)Nc2ccc3c(c2)c(C(=O)C(F)(F)F)cn3CC(=O)N[C@@H](CC(C)C)C(=O)O)cc1 | 20 | – | – | 80.4 (≈ 145 µM)

The next lines start with the values.

Row | MDR1-MDCK efflux ratio | intrinsic clearance, human liver microsomes [mL/min/kg] | intrinsic clearance, rat liver microsomes [mL/min/kg] | aqueous solubility [µg/mL] | Compound
16 | 0.561 | 25.7 | 2240 | – | CCn1c(CN2CCCCCC2)nc2ccccc2c1=O
17 | – | – | – | 16.1 (≈ 45.7 µM) | O=C(c1cc(Oc2cccc(F)c2)nc2ccccc12)N1CCOCC1
18 | 0.574 | – | – | 0.33 (≈ 1.07 µM) | O=C(Nc1ccc(Cl)cn1)C1(c2cccc(Cl)c2)CC1
19 | 47.2 | 15 | 142 | 32.2 (≈ 87.5 µM) | CCc1nnsc1C(=O)Nc1cccc(-c2nnc3n2CCCCC3)c1
20 | 17.7 | ≤ 4.74 | 76 | – | O=C(c1ccc(-c2ccncc2)cc1)N1CCC(O)(CN2CCCC2)CC1
21 | 2.65 | 32.1 | 379 | – | CC(C)c1ccc(CN2CCN(C(=O)C3CCN(C(=O)C4CC4)CC3)CC2)cc1
22 | 20.6 | ≤ 4.74 | 23.9 | 57.5 (≈ 132 µM) | CNC(=O)c1cn(C)nc1CC1CCN(Cc2cnc(-c3ccc(OC)cc3)nc2)CC1
23 | 0.71 | 107 | 2090 | – | Cc1ccc(S(=O)(=O)N2CCOc3ccncc32)cc1
